Source: ChEMBL document CHEMBL1123367, “Furanose-pyranose isomerization of reduced pyrimidine and cyclic urea ribosides” (J Med Chem, 1986)

Key:
[1] = Half-life of the initial pseudo-first-order isomerization at apparent pH 2.8 and 37 degree celsius; assay type: ADME; settings: read-out: T1/2 app (converted)
[2] = Half-life of the initial pseudo-first-order isomerization at apparent pH 1.0 and 25 degree celsius; assay type: ADME; settings: read-out: T1/2 app
[3] = Half-life of the initial pseudo-first-order isomerization at apparent pH 2.0 and 25 degree celsius; assay type: ADME; settings: read-out: T1/2 app (converted)
[4] = Half-life of the initial pseudo-first-order isomerization at apparent pH 1.0 and 37 degree celsius; assay type: ADME; settings: read-out: T1/2 app (converted)
Cytidine deaminase = Cytidine deaminase (Mus musculus, UniProt P56389); test: Compound was tested […] for its ability to inhibit mouse kidney cytidine deaminase (CDA)
Cytidine deaminase, sequence (P56389 whole entry): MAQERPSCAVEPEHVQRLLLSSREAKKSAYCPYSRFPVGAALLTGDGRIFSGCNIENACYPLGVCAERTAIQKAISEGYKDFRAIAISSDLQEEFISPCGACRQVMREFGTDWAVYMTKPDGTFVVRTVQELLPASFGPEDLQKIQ

Row | SMILES | half-life [1] [h] | half-life [2] [h] | half-life [3] [h] | half-life [4] [h] | Ki (Cytidine deaminase) [µM]
1 | O=C1NCCCN1[C@@H]1O[C@H](CO)[C@@H](O)[C@H]1O | 5.2 | < 0.2 | 2.23 | 0.63 | 
2 | O=C1NCCCN1C1OC[C@@H](O)[C@H](O)[C@@H]1O (stereo partly specified) |  |  |  |  | > 50
3 | O=C1NCCCCN1[C@@H]1OC[C@@H](O)[C@@H](O)[C@H]1O |  |  |  |  | 6.6
